US5830920A, “Sulfuric acid esters of sugar alcohols” (Hoffmann-La Roche Inc., priority 1995, dated 1998)

Tests used:
rat smooth muscle cells = assay: Antiproliferative activity in cell cultures (rat smooth muscle cells), relative to heparin; assay type: cell-based; details: 100 μg/ml, 48 h, heparin at same concentration = reference
Method: The antiproliferative activity of a substance is expressed as the ri value which is a comparative value to the corresponding activity of heparin and which was determined in cell cultures as follows: rat smooth muscle cells were applied to cell culture plates in a density of 8×10^3 cells/well, medium: DMEM (Dulbecco Modified Eagle Medium) with 10% FCS (fetal calf serum); cultivation at 37° C. and 5% CO2. After 4 hours, the number of adhered cells was determined and the substances to be tested (100 μg/ml, dissolved in H2 O) were added. […] Subsequently,the cells were incubated for 48 h. and thereafter the cell count was determined once more.
The inhibition i of the cell growth, that is, the reduction in the growth rate of the cells in per cent compared to the control, was calculated from these values. [formula] with the growth rate μ being calculated as [formula] in which Z is the number of cells and d is the time in days.
Finally, ri --the relative inhibitory activity--which expresses the activity of a substance (at 100 μg/ml) in comparison to the activity of heparin in the same concentration in the same experiment, was calculated [formula] Blood coagulation inhibition

thrombin = target: T1, thrombin (Bos taurus, UniProt P00735); assay: Inhibition of thrombin in the chromogenic substrate assay; assay type: biochemical; details: plasma, antithrombin III, substrate S-2238, 37° C., pH 8.4
T1 construct: purchased Roche Basle
Method: (§1) The blood coagulation-inhibiting activity was determined as follows:
(§2) The buffer solution used consisted of 50 mM Tris buffer, 180 mM NaCl, 7.5 mM EDTA Na2, 1% PEG 6000 and 0.02% Tween 80, pH 8.4. The assay solution consisted of 50 μl of buffer, 30 μl of antithombin III (1 U/ml, Kabi Diagnostica) and 20 μl of plasma which contained various concentrations of test compounds. 30 μl of sample solution and 20 μl of water with 180 μl of thrombin (1 U/ml, thrombin reagent, Roche Basle) were added to the test cuvette in the automatic analyzer.

factor Xa = factor Xa (Bos taurus, UniProt P00743); assay: Inhibition of factor Xa in the chromogenic substrate assay; assay type: biochemical; details: plasma, antithrombin III, substrate S-2222, 37° C., pH 8.4
Chain of factor Xa (P00743 234-492 limits assumed): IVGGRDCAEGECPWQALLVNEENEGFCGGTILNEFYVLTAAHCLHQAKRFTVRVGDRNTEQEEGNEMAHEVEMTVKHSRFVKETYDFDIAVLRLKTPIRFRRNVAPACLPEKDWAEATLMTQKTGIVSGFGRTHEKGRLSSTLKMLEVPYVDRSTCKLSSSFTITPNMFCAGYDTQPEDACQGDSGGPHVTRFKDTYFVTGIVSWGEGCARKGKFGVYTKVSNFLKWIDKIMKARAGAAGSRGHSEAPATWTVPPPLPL
Chain of factor Xa (P00743 41-180 limits assumed): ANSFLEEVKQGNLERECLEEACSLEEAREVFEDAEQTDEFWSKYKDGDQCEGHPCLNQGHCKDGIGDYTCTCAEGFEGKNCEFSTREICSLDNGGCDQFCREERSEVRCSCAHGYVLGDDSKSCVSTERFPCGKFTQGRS
Method: [Worded in the source for another target; used here, by the source, with some conditions changed.] as §1, §2

[1] = system: neointima in rat carotids; assay: In vivo assay for antiproliferative activity in damaged rat carotids (neointima after balloonisation); set-up: species or system rat (male Wistar Kyoto); details: 0.3 mg/kg/h i.v.
Method: In vivo assay for determining the antiproliferative activity of the compounds in accordance with the invention in damaged rat carotids.
The left carotids of male Wistar Kyoto rats (300-400 g) were, after narcosis, damaged with a 2F embolectomy catheter by pulling the catheter in the pumped-up state through the vessel three times. After wound management, the animals were kept in pairs with standard feed and water ad libidum.
The compounds were administered in concentrations of 0.3-1 mg/kg/h i.v. For this purpose, an osmotic minipump was implanted under the dorsal skin of the animals during the narcosis and was connected with the jugular vein. Thus, the compounds could be administered constantly during the entire test period of 14 days.
After 14 days, proliferative tissue (neointima) had formed, the size of which could be determined morphometrically on histological cross-sections.In order to do this, the rats were sacrificed and perfusion-fixed with glutaraldehyde.

Row | Substance | Anticoagulant Activity IC50 Thrombin (thrombin) [µg/mL] | Anticoagulant Activity IC50 Factor Xa (factor Xa) [µg/mL] | Antiproliferative Activity ri (relative inhibitory activity compared to heparin) (rat smooth muscle cells) | effect on neointima compared to concentrated heparin ([1]; 14 days, comparison with heparin) | cross sectional area of the neointima in rat carotids 14 days after balloonisation ([1]; osmotic minipump)
1 | 1,6-Bis-O-[4-[2-(2,3,4,5,6-penta-O-sulfo-D-glucit-1-ylcarbamoyl)-ethyl]-phenyl]-2,3,4,5-tetra-O-sulfo-galactitol tetradecasodium salt [Example 6] | > 1000 | > 1000 | 0.7 | comparable effect to that of concentrated heparin | significantly reduced (p<0.01, t-test)
2 | 1,6-bis-O-[3-(2,3,4,5,6-penta-O-sulfo-D-glucit-1-ylcarbamoyl)-naphthalen-2-yl]-2,3,4,5-tetra-O-sulfo-galactitol tetradecasodium salt [Example 14] | > 1000 | > 1000 | 1.5 |  | 
3 | 1,6-bis-O-[3-(2,3,4,5-tetra-O-sulfo-D-arabinit-1-yloxy)-naphthalen-2-yl]-2,3,4,5-tetra-O-sulfo-galactitol dodecasodium salt [Example 40] | > 1000 | > 1000 | 1.4 |  | 
4 | 1,6-bis-O-[3-[benzyl 2,6-didesoxy-6-(2,3,4,5,6-penta-O-sulfo-D-gluconoylamino)-3,4-di-O-sulfo-a-D-glucopyranosid-2-ylcarbamoyl]-naphthalen-1-yl]-2,3,4,5-tetra-O-sulfo-galactitol octadecasodium salt [Example 56] | > 1000 | > 1000 | 1.7 |  | 
5 | 1,6-bis-O-[3-biphenyl-4-ylmethoxy-5-(2,3,4,5,6-penta-O-sulfo-D-glucit-1-ylcarbamoyl)-phenyl]-2,3,4,5-tetra-O-sulfo-galactitol tetradecasodium salt [Example 17] | > 1000 | > 1000 | 1.5 |  | 
6 | 1,6-bis-O-[4-[2-[4-(2,3,4,5,6-penta-O-sulfo-D-glucit-1-ylcarbamoyl)-phenyl]-ethyl]-phenyl]-2,3,4,5-tetra-O-sulfo-galactitol tetradecasodium salt [Example 11] | > 1000 | > 1000 | 2.2 |  | 
7 | 1,6-bis-O-[4-[2-[benzyl-2,6-didesoxy-6-(2,3,4,5,6-penta-O-sulfo-D-gluconoylamino)-3,4-di-O-sulfo-a-D-glucopyranosid-2-ylcarbamoyl]-ethyl]-phenyl]-2,3,4,5-tetra-O-sulfo-galactitol octadecasodium salt [Example 58] | > 1000 | > 1000 | 1.8 |  | 
8 | 1,6-didesoxy-2,3,4,5-tetra-O-sulfo-1,6-bis-[3-(2,3,4,5-tetra-O-sulfo-D-arabinit-1-yloxy)-naphthalen-2-ylcarbonylamino]-galactitol dodecasodium salt [Example 45] | > 1000 | > 1000 | 1.4 |  | 
9 | 2,3,4,5-tetra-O-sulfo-1,6-bis-O-[4-[4-(2,3,4,5-tetra-O-sulfo-D-arabinit-1- yloxy)-benzyl]-phenyl]-D-mannitol dodecasodium salt [Example 43] | > 1000 | > 1000 | 1.3 |  | 

The next lines start with results.

Row | Anticoagulant Activity IC50 Thrombin (thrombin) [µg/mL] | Anticoagulant Activity IC50 Factor Xa (factor Xa) [µg/mL] | Substance | Antiproliferative Activity ri (relative inhibitory activity compared to heparin) (rat smooth muscle cells) | effect on neointima compared to concentrated heparin ([1]; 14 days, comparison with heparin) | cross sectional area of the neointima in rat carotids 14 days after balloonisation ([1]; osmotic minipump)
10 | > 1000 | > 1000 | 1,6-Bis-O-[6-(2,3,4,5,6-penta-O-sulfo-D-glucit-1-ylcarbamoyl)-naphthalen-2- yl]-2,3,4,5-tetra-O-sulfo-galactitol tetradecasodium salt [Example 16] | 2.1 |  | 
11 | > 1000 | > 1000 | 1,6-bis-O-[4-[4-O-[4-[(E)-2-(2,3,4,5,6-penta-O-sulfo-D-glucit-1-ylcarbamoyl)-vinyl]-phenyl]-2,3-di-O-sulfo-D-threit-1-yloxy]-phenyl]-2,3,4,5-tetra-O- sulfo-galactitol octadecasodium salt [Example 48] | 2.7 |  | 
12 | > 1000 | > 1000 | 1,6-bis-O-[4-[4-O-[4-[(E)-2-[methyl-(2,3,4,5,6-penta-O-sulfo-D-glucit-1-yl)-carbamoyl]-vinyl]-phenyl]-2,3-di-O-sulfo-D-threit-1-yloxy]-phenyl]-2,3,4,5-tetra-O-sulfo-galactitol octadecasodium salt [Example 52] | 0.8 |  | 
13 | > 1000 | > 1000 | 1,6-bis-O-[4-[(E)-2-[benzyl 2,6-didesoxy-2-[4-(2,3,4,5,6-penta-O-sulfo-D-glucit-1-ylamino)-3-nitro-benzoyl-amino]-3,4-di-O-sulfo-a-D-glucopyranosid-6-ylcarbamoyl]-vinyl]-phenyl]-2,3,4,5-tetra-O-sulfo-galactitol octadecasodium salt [Example 61] | 2.4 |  | 
14 | > 1000 | > 1000 | 1,6-bis-O-[6-[(S)-2,3-bis-sulfooxy-propoxy]-3-(2,3,4,5,6-penta-O-sulfo-D-glucit 1-ylcarbamoyl)-naphthalen-2-yl]-2,3,4,5-tetra-O-sulfo-galactitol octadecasodium salt [Example 22] | 2.1 |  | 
15 | > 1000 | > 1000 | 1,6-bis-O-[6-[benzyl 2,6-didesoxy-2-[3-nitro-4-(2,3,4,5,6-penta-O-sulfo-D-glucit-1-ylamino)-benzoylamino]-3,4-di-O-sulfo-a-D-glucopyranosid-6-ylcarbamoyl]-naphthalen-2-yl]-2,3,4,5-tetra-O-sulfo-galactitol octadecasodium salt [Example 59] | 1.8 |  | 
16 | 1.9 | 2.7 | Heparin [reference compound] | 1.0 |  | 
